Measured values: patent EP0443560A2, “HIV protease inhibitors” (priority 1990, dated 1991)

These molecules were tested against T1, HIV protease (Human immunodeficiency virus type 1 group M subtype B, UniProt P04585) (assay: Recombinant HIV Protease HPLC Assay). Conditions: not given.
T1 construct: HIV protease was expressed in E. coli [construct pBRT1 prt⁺; made in house; host or cells: E. coli
Format: biochemical
Text: The procedure is based on the capacity of the test compound to inhibit enzymatic cleavage by HIV protease of a decapeptide (the substrate) having an amino acid sequence which includes a known HIV protease cleavage site of a HIV polyprotein; see H.G. Krausslich et al., Proc. Natl. Acad. Sci. USA, 86, 807 (1989). Details of this assay together with the results obtained for exemplified compounds of formula 1 are described in the examples hereinafter.
Recombinant HIV Protease HPLC Assay:
HIV protease was expressed in E. coli [construct pBRT1 prt⁺, see W.G. Farmerie et al., Science, 236, 305 (1987)], according to the following protocol: Unless stated otherwise, all solutions are aqueous solutions.
E. coli cells containing the pBRT1 prt⁺ plasmid were used to inoculate a seed culture media composed of Luria-Bertani Broth containing 100µg/mL of ampicillin. Flasks were incubated at 37° under agitation for 17 h. Production flasks containing sterile M9 broth, supplemented with 100µg/ml of ampicillin, were inoculated at a level of 1% (v/v) using the seed culture described above. Total volume in each production flask was 500 mL in a 2 L Erlenmeyer flask. Flasks were incubated at 37° under agitation until a cell concentration corresponding to an optical density (λ = […]) of 0.6 was reached (no dilution). This time span was routinely 3-4 h. Flasks were then supplemented with 5mM isopropylthiogalactoside (IPTG, Research Organics, Cleveland, Ohio, USA) and incubation was continued until the cell concentration reached an optical density of 0.2 at 16-fold dilution. Flasks were then supplemented with 1mM phenylmethylsulfonyl fluoride (PMSF) and rapidly chilled to 4°. The bacterial cells were recovered by centrifugation at 4°. The wet pellet was stored at -70°.
All steps below were performed at 4° unless otherwise indicated. Thawed cells were mixed with buffer A [50 mM tris(hydroxymethyl)[…] HCl(Tris-HCl, pH 7.4); 0.6 mM ethylenediaminetetraacetic acid (EDTA); 0.375 M NaCl, 0.2% Nonidet P-40 ® (BDH Chemicals Ltd., Poole, UK); 1mM PMSF], at a ratio of one part cells to nine parts buffer A. Diatomaceous earth (Celite 545 ® , John Manville, Lompoc, CA, USA) was added at a ratio of two parts to one part of wet cell weight. The resulting slurry was homogenized at high speed (ca. 20,000 rpm) on a Waring ® industrial blender for 8 x 15 sec. pulses. Cell debris/Celite ® was collected by centrifugation and the resulting pellet was extracted with 4.5 parts of buffer A to one part wet solids using the homogenization procedure described above. Supernatants from both homogenization steps were combined and soluble protein was precipitated by the addition of solid (NH₄)₂SO₄ to yield a final concentration of 75% saturation. This mixture was agitated for 60 min and the precipitate was recovered by centrifugation. The resulting pellet was suspended in buffer B [50mM Tris-HCl, pH 8; 30 mM NaCl; 1 mM DL-dithiothreitol(DTT); 1 mM EDTA; 1 mM PMSF; 10% glycerol], and dialyzed for 18h against the same buffer.
An aliquot of the dialyzed extract containing 150 mg of the protein was loaded onto a Sephadex A25 ® anion exchange column. (Pharmacia, Uppsala, Sweden) with bed dimensions of 70 cm length and 2.5 cm diameter. The sample was eluted isocratically with buffer B at a linear flow rate of 10 cm/h. Fractions containing HIV protease activity (see below for assay description) were combined, and soluble protein was precipitated by the addition of saturated aqueous (NH₄)₂SO₄ to yield a total (NH₄)₂SO₄ concentration of 85% saturation. Precipitated protein was removed by centrifugation and the resulting pellet was dissolved in buffer C [50 mM 2-(4-morpholino)ethanesulfonic acid (MES), pH 5.5; 150 mM NaCl; 1 mM DTT; 1 mM EDTA; 10% glycerol). This preparation was dialyzed for 18h against buffer C, and then frozen at -70°. All crude extracts were purified by chromatography in aliquots containing 150 mg of protein in the same manner as described above. […]

Row | Molecule | IC50 [nM]
1 | CCC(CC)C(=O)NC(CC1CCCCC1)C(O)CC(=O)NC(CCC(=O)O)C(=O)NCCc1ccccc1 (stereo not drawn) [Example 6, (C₂H₅)₂CHC(O)-ACHPA-Glu-NHCH₂CH₂Ph] | 93
2 | O=C(O)CCC(NC(=O)CC(O)C(CC1CCCCC1)NC(=O)C1CCCCC1)C(=O)NCCc1ccccc1 (stereo not drawn) [Example 12, (Cyclohexylcarbonyl)-ACHPA-Glu-NHCH₂CH₂Ph] | 130
3 | CC(C)(C)OC(=O)NC(C(O)CC(=O)NC(CCC(=O)O)C(=O)NCCCc1ccccc1)C(O)C1CCCCC1 (stereo not drawn) [Example 33, Boc-HACHPA-Glu-NHCH₂CH₂CH₂Ph] | 7.7
4 | CC(C)(C)OC(=O)NC(CC1CCCCC1)C(O)CC(=O)NC(CCC(=O)O)C(=O)OCCCc1ccccc1 (stereo not drawn) [Example 25, Boc-ACHPA-Glu-OCH₂CH₂CH₂Ph] | 85
5 | CC(C)(C)OC(=O)NC(CC1CCCCC1)C(O)CC(=O)NC(CCC(=O)O)C(=S)NCCCc1ccccc1 (stereo not drawn) [Example 31, Boc-ACHPA-GluΨ[CSNH]-NHCH₂CH₂CH₂Ph] | 380
6 | CC(C)(C)OC(=O)NC(CC1CC1)C(O)CC(=O)NC(CCC(=O)O)C(=O)NCCCc1ccccc1 (stereo not drawn) [Example 18, Boc-ACPPA-Glu-NHCH₂CH₂CH₂Ph] | 180
7 | CSc1ccc(CCNC(=O)C(CCC(=O)O)NC(=O)CC(O)C(CC2CCCCC2)NC(=O)OC(C)(C)C)cc1 (stereo not drawn) [Example 22, Boc-ACHPA-Glu-NHCH₂CH₂-(4MeS-Ph)] | 18
8 | COC(=O)CCC(NC(=O)CC(O)C(CC1CCCCC1)NC(=O)OC(C)(C)C)C(=O)NCCCc1ccccc1 (stereo not drawn) [Example 5, Boc-ACHPA-Glu(OMe)-NHCH₂CH₂CH₂Ph] | 110
9 | CC(C)(C)NC(=O)NC(CC1CCCCC1)C(O)CC(=O)NC(CCC(=O)O)C(=O)NCCCc1ccccc1 (stereo not drawn) [Example 26, (CH₃)₃CNHCO-ACHPA-Glu-NHCH₂CH₂CH₂Ph] | 120
10 | CC(C)C[C@H](NC[C@H](Cc1ccccc1)NC(=O)OC(C)(C)C)C(=O)N[C@@H](CCC(=O)O)C(=O)NCCCc1ccccc1 [Example 1, Boc-PheΨ[CH₂NH]Leu-Glu-NHCH₂CH₂CH₂Ph] | 36
11 | CCCCCCCCNC(=O)C(CCC(=O)O)NC(=O)CC(O)C(CC1CCCCC1)NC(=O)OC(C)(C)C (stereo not drawn) [Example 13, Boc-ACHPA-Glu-NH(CH₂)₇CH₃] | 40

Same assay, conditions: read-out: IC₅₀; recombinant HIV protease HPLC assay; values in parenthesis in text

Row | Molecule | IC50 [nM]
12 | CC(C)(C)OC(=O)N[C@@H](CC1CCCCC1)[C@@H](O)CC(=O)N[C@@H](CCC(=O)O)C(=O)NCCOc1ccccc1Cl [Boc-ACHPA-Glu-NHCH₂CH₂O-(2Cl-Ph)] | 6.6
13 | COC(=O)CC[C@H](NC(=O)C[C@H](O)[C@H](CC1CCCCC1)NC(=O)OC(C)(C)C)C(=O)NCCCc1ccc(F)cc1 [Boc-ACHPA-Glu(OMe)-NHCH₂CH₂CH₂-(4F-Ph)] | 83
14 | COC(=O)CC[C@H](NC(=O)C[C@H](O)[C@H](CC1CCCCC1)NC(=O)OC(C)(C)C)C(=O)NCCOc1ccccc1Cl [Boc-ACHPA-Glu(OMe)-NHCH₂CH₂O-(2Cl-Ph)] | 140
15 | CC(C)(C)OC(=O)N[C@@H](CC1CCCCC1)[C@@H](O)CC(=O)N[C@@H](CCC(=O)O)C(=O)NCCc1ccc(Cl)cc1 [Boc-ACHPA-Glu-NHCH₂CH₂-(4-Cl-Ph)] | 12
16 | CC(C)(C)OC(=O)N[C@@H](CC1CCCCC1)[C@@H](O)CC(=O)N[C@@H](CCC(=O)O)C(=O)NCCCc1ccc(F)cc1 [Boc-ACHPA-Glu-NHCH₂CH₂CH₂-(4F-Ph)] | 5.6

Same assay, conditions: recombinant HIV protease HPLC assay; values in parenthesis in text; read-out: IC₅₀

Row | Molecule | IC50 [nM]
17 | CC(C)(C)OC(=O)NC(CC1CCCCC1)C(O)CC(=O)NC(CCC(=O)O)C(=O)NCCOCc1ccccc1 (stereo not drawn) [Boc-ACHPA-Glu-NHCH₂CH₂OBzl] | 7.1
18 | CC(C)(C)OC(=O)N[C@@H](CC1CCCCC1)[C@@H](O)CC(=O)N[C@@H](CCC(=O)O)C(=O)NCCOc1ccccc1 [Boc-ACHPA-Glu-NHCH₂CH₂OPh] | 8.6
19 | CC(C[C@H](NC(=O)C[C@H](O)[C@H](CC1CCCCC1)NC(=O)OC(C)(C)C)C(=O)NCCCc1ccccc1)C(=O)O (stereo partly drawn) [Boc-ACHPA-{(S)-NHCH[CH₂CH(CH₃)COOH]}C(O)-NHCH₂CH₂CH₂Ph] | 18
20 | COC(=O)CC[C@H](NC(=O)C[C@H](O)[C@H](CC1CCCCC1)NC(=O)OC(C)(C)C)C(=O)NCCOCc1ccccc1 [Boc-ACHPA-Glu(OMe)-NHCH₂CH₂OBzl] | 260
21 | CC(=O)N[C@@H](CC1CCCCC1)[C@@H](O)CC(=O)N[C@@H](CCC(=O)O)C(=O)NCCCc1ccccc1 [CH₃C(O)-ACHPA-Glu-NHCH₂CH₂CH₂Ph] | 160
22 | CC(C)[C@H](NC[C@H](Cc1ccccc1)NC(=O)OC(C)(C)C)C(=O)N[C@@H](CCC(=O)O)C(=O)NCCCc1ccccc1 [Boc-PheΨ[CH₂NH]Val-Glu-NHCH₂CH₂₂CH₂Ph] | 30
23 | CC(C)(C)OC(=O)N[C@@H](CC1CCCCC1)[C@@H](O)CC(=O)N[C@@H](CCC(=O)O)C(=O)NCCCc1ccco1 [Boc-ACHPA-Glu-NHCH₂CH₂CH₂-(2-furyl)] | 25
24 | COC(=O)CC[C@H](NC(=O)C[C@H](O)[C@@H](NC(=O)OC(C)(C)C)[C@@H](O)C1CCCCC1)C(=O)NCCCc1ccccc1 [Boc-HACHPA-Glu(OMe)-NHCH₂CH₂CH₂Ph] | 120
25 | CC(C)(C)OC(=O)N[C@@H](CC1CCCCC1)[C@@H](O)CCC(=O)N[C@@H](CCC(=O)O)C(=O)NCCCc1ccccc1 [Boc-ChaΨ[CH(OH)CH₂]Gly-Glu-NHCH₂CH₂CH₂Ph] | 14
26 | COC(=O)CC[C@H](NC(=O)C[C@H](O)[C@H](CC1CCCCC1)NC(=O)OC(C)C)C(=O)NCCOCc1ccccc1 [Ipoc-ACHPA-Glu(OMe)-NHCH₂CH₂OBzl] | 150
27 | CC(C)(C)OC(=O)N[C@H](CN[C@@H](CC1CC1)C(=O)N[C@@H](CCC(=O)O)C(=O)NCCc1ccccc1)Cc1ccccc1 [Boc-PheΨ[CH₂NH]Cpa-Glu-NHCH₂CH₂Ph] | 16
28 | COc1ccc(CCNC(=O)[C@H](CCC(=O)O)NC(=O)C[C@H](O)[C@H](CC2CCCCC2)NC(=O)OC(C)(C)C)cc1 [Boc-ACHPA-Glu-NHCH₂CH₂-(4-MeO-Ph)] | 33
29 | COC(=O)CCC(NC(=O)CC(O)C(CC1CCCCC1)NC(=O)OC(C)(C)C)C(=O)NCCc1ccc(SC)cc1 (stereo not drawn) [Boc-ACHPA-Glu(OMe)-NHCH₂CH₂-(4MeS-Ph)] | 91
30 | CC(C)OC(=O)N[C@@H](CC1CCCCC1)[C@@H](O)CC(=O)N[C@@H](CCC(=O)O)C(=O)NCCCc1ccccc1 [Ipoc-ACHPA-Glu-NH-CH₂CH₂CH₂Ph] | 6.3
31 | COC(=O)CC[C@H](NC(=O)CC[C@H](O)[C@H](CC1CCCCC1)NC(=O)OC(C)(C)C)C(=O)NCCCc1ccccc1 [Boc-ChaΨ[CH(OH)CH₂]Gly-Glu(OMe)-NHCH₂CH₂CH₂Ph] | 600
32 | COC(=O)N[C@@H](CC1CCCCC1)[C@@H](O)CC(=O)N[C@@H](CCC(=O)O)C(=O)NCCCc1ccccc1 [Moc-ACHPA-Glu-NHCH₂CH₂CH₂Ph] | 15
33 | Boc-AHDHA-Glu-NHCH₂CH₂CH₂Ph | 32
34 | CCCC[C@H](NC[C@H](Cc1ccccc1)NC(=O)OC(C)(C)C)C(=O)N[C@@H](CCC(=O)O)C(=O)NCCCc1ccccc1 [Boc-PheΨ[CH₂NH]Nle-Glu-NHCH₂CH₂CH₂Ph] | 12
35 | CC(C)(C)OC(=O)N[C@@H](CC1CCCCC1)[C@@H](O)CC(=O)N[C@@H](CCC(=O)O)C(=O)NCCCc1cccs1 [Boc-ACHPA-Glu-NHCH₂CH₂CH₂-(2-thienyl)] | 33
36 | Boc(4F-Phe)Ψ[CH₂NH]Cpa-Glu-NHCH₂CH₂-(4F-Ph) | 15
37 | Boc-PheΨ[CH₂NH]Cpa-Glu-NHCH₂CH₂-(4F-Ph) | 8.4
38 | Boc-homoACHPA-Glu-NHCH₂CH₂CH₂Ph | 68
39 | Boc-PheΨ[CH₂NH]Cpa-Glu-NHCH₂CH₂CH₂-(4F-Ph) | 8
